# Results as given in US4751295A, “Cephalosporin derivatives” (Bristol-Myers Company, priority 1986, dated 1988).
# Read-outs that look alike come from different tables or passages of the source.
# Key:
# [1] = blood levels upon intramuscular administration to mice; format: in vivo; conditions: mouse, im, 20 mg/kg
# Description: (§1) Table 2, below, gives the Protective Dose50 (PD50) in mice for a number of the compounds of Formula I against selected microorganisms. Table 3 gives blood levels of various compounds of Formula I upon intramuscular administration of the test compounds to mice at a dosage of 20 mg/kg.
# P. aeruginosa A9843A = test: Protective Dose50 in mice, P. aeruginosa A9843A; format: in vivo; conditions: Pseudomonas aeruginosa, read-out: PD50, P. aeruginosa A9843A
# Description: as §1
# S. aureus Smith = test: Protective Dose50 in mice, S. aureus Smith; format: in vivo; conditions: for ED50: Staphylococcus aureus, read-out: PD50, S. aureus Smith
# Description: as §1
# [2] = system: Cephalothinsensitive E. coli (2 strains), Kl. pneumoniae (1 strain) and Pr. mirabilis (2 strains); test: MIC, two-fold serial agar dilution, group (G-)-Ia; format: cell-based; conditions: Mueller-Hinton agar; 5 strains; read-out: Geometric Mean of MIC, (G-)-Ia
# Description: (§2) In the primary evaluation of the compounds of this invention, the Minimum Inhibitory Concentrations (MIC's) of the compounds were determined by the two-fold serial agar dilution method in Mueller-Hinton agar against 32 strains of test organisms in six groups.
# (G+)Ia: Cephalothinsensitive E. coli (2 strains), Kl. pneumoniae (1
# strain) and Pr. mirabilis (2 strains)
# [3] = system: Cephalothinresistant E. coli (3 strains) and Kl. pneumoniae (2 strains); test: MIC, two-fold serial agar dilution, group (G-)-Ib; format: cell-based; conditions: Escherichia coli, read-out: Geometric Mean of MIC, (G-)-Ib, Mueller-Hinton agar; 5 strains
# Description: as §2
# (G-)Ib: Cephalothinresistant E. coli (3 strains) and Kl. pneumoniae (2
# E. coli Juhl = test: Protective Dose50 in mice, E. coli Juhl; format: in vivo; conditions: Escherichia coli, read-out: PD50, E. coli Juhl
# Description: as §1
# [4] = system: M. morganii (1 strain), Ent. cloacae (2 strains) and Ser. marcescens (2 strains); test: MIC, two-fold serial agar dilution, group (G-)-II; format: cell-based; conditions: Mueller-Hinton agar; 5 strains; read-out: Geometric Mean of MIC, (G-)-II
# Description: as §2
# (G-)II: M. morganii (1 strain), Ent. cloacae (2 strains) and Ser.
# [5] = system: Penicillinsensitive S. aureus (5 strains); test: MIC, two-fold serial agar dilution, group (G+)-Ia; format: cell-based; conditions: Staphylococcus aureus, read-out: Geometric Mean of MIC, (G+)-Ia
# Description: as §2
# (G+)Ia: Penicillinsensitive S. aureus (5 strains)
# [6] = system: Penicillinresistant S. aureus (5 strains); test: MIC, two-fold serial agar dilution, group (G+)-Ib; format: cell-based; conditions: Staphylococcus aureus, read-out: Geometric Mean of MIC, (G+)-Ib
# Description: as §2
# (G+)Ib: Penicillinresistant S. aureus (5 strains)
# [7] = system: Ps. aeruginosa (7 strains); test: MIC, two-fold serial agar dilution, group (G-)-III; format: cell-based; conditions: Pseudomonas aeruginosa, Mueller-Hinton agar, read-out: Geometric Mean of MIC, (G-)-III
# Description: as §2
# (G-)III: Ps. aeruginosa (7 strains)
# [8] = solubility of crystalline zwitterion in saline; format: physicochemical; conditions: crystalline zwitterion form
SMILES,AUC [1] [ng·h/mL],Cmax [1] [ng/mL],half-life [1] [min],ED50 (P. aeruginosa A9843A) [mg/kg],"PD50, S. aureus Smith (S. aureus Smith) [mg/kg]",ED50 (S. aureus Smith) [mg/kg],MIC [2] [µg/mL],MIC [3] [µg/mL],ED50 (E. coli Juhl) [mg/kg],MIC [4] [µg/mL],MIC [5] [µg/mL],MIC [6] [µg/mL],MIC [7] [µg/mL],"MIC ([6]; Mueller-Hinton agar, 5 strains) [µg/mL]",solubility in water (in words) [8],solubility ([8]; in saline at 23° C.) [µg/mL],"MIC ([5]; Mueller-Hinton agar, 5 strains) [µg/mL]"
"CON=C(C(=O)NC1C(=O)N2C(C(=O)[O-])=C(C=CC[n+]3ccccc3)CSC12)c1nsc(N)n1 (centres unmarked) [Compound I-1B, 7-[2-(5-Amino-1,2,4-thiadiazol-3-yl)-2-methoxyiminoacetamido]-3-[3-pyridinio-1-propen-1-yl]-3-cephem-4-carboxylate]",11000,17000,21,7.7,0.65,0.44,–,–,–,–,–,–,–,–,–,–,–
"CON=C(C(=O)NC1C(=O)N2C(C(=O)[O-])=C(C=CC[n+]3ccc4sc(N)nc4c3)CS[C@H]12)c1nsc(N)n1 (some centres unmarked) [Compound I-1C, 7-[2-(5-Amino-1,2,4-thiadiazol-3-yl)-2-methoxyiminoacetamido]-3-[3-(2-amino-5-thiazolo[4,5-c]pyridinio)-1-propen-1-yl]-3-cephem-4-carboxylate]",18000,21000,32,–,–,0.22,0.0071,0.033,0.013,0.087,0.1,0.2,3.8,–,–,–,–
"CON=C(C(=O)NC1C(=O)N2C(C(=O)[O-])=C(/C=C/C[n+]3cccc(C(N)=O)c3)CSC12)c1nsc(N)n1 (centres unmarked) [Compound I-1G, 7-[2-(5-Amino-1,2,4-thiadiazol-3-yl)-2-methoxyiminoacetamido]-3-[3-(3-carbamoylpyridinio)-1-propen-1-yl]-3-cephem-4-carboxylate]",–,–,–,5.92,–,0.96,0.0094,0.033,0.021,0.1,0.2,–,1.4,0.35,–,–,–
"CON=C(C(=O)NC1C(=O)N2C(C(=O)[O-])=C(/C=C/C[n+]3ccc(C(N)=O)cc3)CSC12)c1nsc(N)n1 (centres unmarked) [Compound I-1H, 7-[2-(5-Amino-1,2,4-thiadiazol-3-yl)-2-methoxyiminoacetamido]-3-[3-(4-carbamoylpyridinio)-1-propen-1-yl]-3-cephem-4-carboxylate]",14000,23000,16,3.9,–,0.39,0.013,0.043,0.015,0.1,0.2,–,0.97,0.4,slightly soluble in water,6000,–
"CON=C(C(=O)NC1C(=O)N2C(C(=O)[O-])=C(/C=C/C[n+]3ccsc3C)CSC12)c1nsc(N)n1 (centres unmarked) [Compound I-1J, 7-[2-(5-Amino-1,2,4-thiadiazol-3-yl)-2-methoxyiminoacetamido]-3-[3-(2-methylthiazolio)-1-propen-1-yl]-3-cephem-4-carboxylate]",9700,19000,16,–,–,0.35,0.025,0.076,0.029,0.15,–,–,1.6,0.35,–,–,0.17
"CON=C(C(=O)NC1C(=O)N2C(C(=O)[O-])=C(/C=C/C[n+]3cccc(CO)c3)CSC12)c1nsc(N)n1 (centres unmarked) [Compound I-1K, 7-[2-(5-Amino-1,2,4-thiadiazol-3-yl)-2-methoxyiminoacetamido]-3-[3-(3-hydroxymethylpyridinio)-1-propenyl]-3-cephem-4-carboxylate]",14000,24000,14,–,–,0.53,0.029,0.044,–,0.2,–,–,3.5,0.8,–,–,0.35
"CNC(=O)c1cc[n+](C/C=C/C2=C(C(=O)[O-])N3C(=O)C(NC(=O)/C(=N\OC)c4nsc(N)n4)C3SC2)cc1 (centres unmarked) [Compound I-1M, 7-[2-(5-Amino-1,2,4-thiadiazol-3-yl)-2-(Z)-methoxyiminoacetamido]-3-[3-(4-N-methylcarbamoylpyridinio)-1-propenyl]-3-cephem-4-carboxylate]",14000,20000,23,–,–,0.96,0.029,0.1,–,0.17,–,–,2.3,0.7,–,–,0.35
